Measured values taken from ChEMBL document CHEMBL3797052 (Eur J Med Chem, 2016).

System: not listed separately
Test: Antiproliferative activity against human SF539 cells assessed as cell growth at 10^-6 M after 48 hrs by sulforhodamine B assay
Assay type: functional
Settings: SF-539, 48 h, read-out: Activity

Compound	growth at 1 µM [%]
CNC(=O)c1cc(Oc2ccc3nc(NC(=O)Nc4ccc(Cl)c(C(F)(F)F)c4)sc3c2)ccn1	87

System: not listed separately
Test: Antiproliferative activity against human DU145 cells assessed as cell growth at 10^-4 M after 48 hrs by sulforhodamine B assay
Assay type: functional
Settings: DU-145, 48 h, read-out: Activity

Compound	growth at 100 µM [%]
CNC(=O)c1cc(Oc2ccc3nc(NC(=O)Nc4ccc(Cl)c(C(F)(F)F)c4)sc3c2)ccn1	17

System: SK-MEL-2
Test: Antiproliferative activity against human SK-MEL-2 cells assessed as cell growth at 10^-7 M after 48 hrs by sulforhodamine B assay
Assay type: functional
Settings: SK-MEL-2, 48 h, read-out: Activity

Compound	growth at 0.1 µM [%]
CNC(=O)c1cc(Oc2ccc3nc(NC(=O)Nc4ccc(Cl)c(C(F)(F)F)c4)sc3c2)ccn1	99

System: not listed separately
Test: Antiproliferative activity against human IGROV1 cells assessed as cell growth at 10^-4 M after 48 hrs by sulforhodamine B assay
Assay type: functional
Settings: IGROV-1, 48 h, read-out: Activity

Compound	growth at 100 µM [%]
CNC(=O)c1cc(Oc2ccc3nc(NC(=O)Nc4ccc(Cl)c(C(F)(F)F)c4)sc3c2)ccn1	-35

System: not listed separately
Test: Antiproliferative activity against human Caki1 cells assessed as cell growth at 10^-8 M after 48 hrs by sulforhodamine B assay
Assay type: functional
Settings: CAKI-1, 48 h, read-out: Activity

Compound	growth at 0.01 µM [%]
CNC(=O)c1cc(Oc2ccc3nc(NC(=O)Nc4ccc(Cl)c(C(F)(F)F)c4)sc3c2)ccn1	87

System: CCRF-CEM
Test: Antiproliferative activity against human CCRF-CEM cells assessed as cell growth at 10^-8 M after 48 hrs by sulforhodamine B assay
Assay type: functional
Settings: read-out: Activity

Compound	growth at 0.01 µM [%]
CNC(=O)c1cc(Oc2ccc3nc(NC(=O)Nc4ccc(Cl)c(C(F)(F)F)c4)sc3c2)ccn1	105

System: A498
Test: Antiproliferative activity against human A498 cells assessed as cell growth at 10^-7 M after 48 hrs by sulforhodamine B assay
Assay type: functional
Settings: A498, 48 h, read-out: Activity

Compound	growth at 0.1 µM [%]
CNC(=O)c1cc(Oc2ccc3nc(NC(=O)Nc4ccc(Cl)c(C(F)(F)F)c4)sc3c2)ccn1	97

System: MDA-MB-231
Test: Antiproliferative activity against human MDA-MB-231 cells assessed as cell growth at 10^-7 M after 48 hrs by sulforhodamine B assay
Assay type: functional
Settings: MDA-MB-231, 48 h, read-out: Activity

Compound	growth at 0.1 µM [%]
CNC(=O)c1cc(Oc2ccc3nc(NC(=O)Nc4ccc(Cl)c(C(F)(F)F)c4)sc3c2)ccn1	109

System: A498
Test: Antiproliferative activity against human A498 cells assessed as cell growth at 10^-4 M after 48 hrs by sulforhodamine B assay
Assay type: functional
Settings: A498, 48 h, read-out: Activity

Compound	growth at 100 µM [%]
CNC(=O)c1cc(Oc2ccc3nc(NC(=O)Nc4ccc(Cl)c(C(F)(F)F)c4)sc3c2)ccn1	-40

System: not listed separately
Test: Antiproliferative activity against human HL-60(TB) cells assessed as growth inhibition after 48 hrs by sulforhodamine B assay
Assay type: functional
Settings: HL-60, 48 h

Compound	GI50 [µM]	TGI [µM]
CNC(=O)c1cc(Oc2ccc3nc(NC(=O)Nc4ccc(Cl)c(C(F)(F)F)c4)sc3c2)ccn1	> 100	> 100

Same assay, conditions: HL-60, 48 h, read-out: LC50 (the source's name)

Compound	CC50 [µM]
CNC(=O)c1cc(Oc2ccc3nc(NC(=O)Nc4ccc(Cl)c(C(F)(F)F)c4)sc3c2)ccn1	> 100

System: KM12
Test: Antiproliferative activity against human KM12 cells assessed as cell growth at 10^-8 M after 48 hrs by sulforhodamine B assay
Assay type: functional
Settings: KM12, 48 h, read-out: Activity

Compound	growth at 0.01 µM [%]
CNC(=O)c1cc(Oc2ccc3nc(NC(=O)Nc4ccc(Cl)c(C(F)(F)F)c4)sc3c2)ccn1	103

Biological target: CYP2D6 (Homo sapiens, UniProt P10635)
Sequence (P10635 whole entry): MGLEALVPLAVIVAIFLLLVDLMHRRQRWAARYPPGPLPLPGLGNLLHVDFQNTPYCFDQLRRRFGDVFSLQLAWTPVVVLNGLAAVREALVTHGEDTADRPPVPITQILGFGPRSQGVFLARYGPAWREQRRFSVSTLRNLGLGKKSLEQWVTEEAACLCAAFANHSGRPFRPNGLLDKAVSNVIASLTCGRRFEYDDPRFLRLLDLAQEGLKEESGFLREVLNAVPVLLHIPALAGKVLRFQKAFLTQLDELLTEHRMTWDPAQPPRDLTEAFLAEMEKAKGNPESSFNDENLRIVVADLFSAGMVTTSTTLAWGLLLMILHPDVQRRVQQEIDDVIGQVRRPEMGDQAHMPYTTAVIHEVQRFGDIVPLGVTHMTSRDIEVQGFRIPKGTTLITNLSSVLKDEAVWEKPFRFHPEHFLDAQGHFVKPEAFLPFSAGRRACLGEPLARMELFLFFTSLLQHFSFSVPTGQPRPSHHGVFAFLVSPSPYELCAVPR
Test: Inhibition of recombinant human CYP2D6 assessed as remaining enzyme activity using CYP2D6 blue as substrate at 10 uM after 5 mins in presence of NADP by fluorescence plate reader analysis
Assay type: ADME
Settings: recombinant human CYP2D6, probe CYP2D6 blue, read-out: Activity

Compound	activity at 5 min, 10 µM [%]
CNC(=O)c1cc(Oc2ccc3nc(NC(=O)Nc4ccc(Cl)c(C(F)(F)F)c4)sc3c2)ccn1	98.7

System: not listed separately
Test: Antiproliferative activity against human OVCAR8 cells assessed as growth inhibition after 48 hrs by sulforhodamine B assay
Assay type: functional
Settings: OVCAR-8, 48 h

Compound	GI50 [µM]	LC50 [µM]	TGI [µM]
CNC(=O)c1cc(Oc2ccc3nc(NC(=O)Nc4ccc(Cl)c(C(F)(F)F)c4)sc3c2)ccn1	2.34	> 100	5.25

System: not listed separately
Test: Antiproliferative activity against human HOP62 cells assessed as cell growth at 10^-8 M after 48 hrs by sulforhodamine B assay
Assay type: functional
Settings: HOP-62, 48 h, read-out: Activity

Compound	growth at 0.01 µM [%]
CNC(=O)c1cc(Oc2ccc3nc(NC(=O)Nc4ccc(Cl)c(C(F)(F)F)c4)sc3c2)ccn1	92

System: not listed separately
Test: Antiproliferative activity against human Hs 578T cells assessed as cell growth at 10^-6 M after 48 hrs by sulforhodamine B assay
Assay type: functional
Settings: read-out: Activity

Compound	growth at 1 µM [%]
CNC(=O)c1cc(Oc2ccc3nc(NC(=O)Nc4ccc(Cl)c(C(F)(F)F)c4)sc3c2)ccn1	65

System: NCI-H226
Test: Antiproliferative activity against human NCI-H226 cells assessed as cell growth at 10^-4 M after 48 hrs by sulforhodamine B assay
Assay type: functional
Settings: NCI-H226, 48 h, read-out: Activity

Compound	growth at 100 µM [%]
CNC(=O)c1cc(Oc2ccc3nc(NC(=O)Nc4ccc(Cl)c(C(F)(F)F)c4)sc3c2)ccn1	-25

System: SR
Test: Antiproliferative activity against human SR cells assessed as cell growth at 10^-6 M after 48 hrs by sulforhodamine B assay
Assay type: functional
Settings: read-out: Activity

Compound	growth at 1 µM [%]
CNC(=O)c1cc(Oc2ccc3nc(NC(=O)Nc4ccc(Cl)c(C(F)(F)F)c4)sc3c2)ccn1	15

System: NCI-H460
Test: Antiproliferative activity against human NCI-H460 cells assessed as cell growth at 10^-7 M after 48 hrs by sulforhodamine B assay
Assay type: functional
Settings: NCI-H460, 48 h, read-out: Activity

Compound	growth at 0.1 µM [%]
CNC(=O)c1cc(Oc2ccc3nc(NC(=O)Nc4ccc(Cl)c(C(F)(F)F)c4)sc3c2)ccn1	103

System: SN12C
Test: Antiproliferative activity against human SN12C cells assessed as cell growth at 10^-7 M after 48 hrs by sulforhodamine B assay
Assay type: functional
Settings: read-out: Activity

Compound	growth at 0.1 µM [%]
CNC(=O)c1cc(Oc2ccc3nc(NC(=O)Nc4ccc(Cl)c(C(F)(F)F)c4)sc3c2)ccn1	93

System: not listed separately
Test: Antiproliferative activity against human SKOV3 cells assessed as cell growth at 10^-7 M after 48 hrs by sulforhodamine B assay
Assay type: functional
Settings: SK-OV-3, 48 h, read-out: Activity

Compound	growth at 0.1 µM [%]
CNC(=O)c1cc(Oc2ccc3nc(NC(=O)Nc4ccc(Cl)c(C(F)(F)F)c4)sc3c2)ccn1	103

System: SR
Test: Antiproliferative activity against human SR cells assessed as cell growth at 10^-7 M after 48 hrs by sulforhodamine B assay
Assay type: functional
Settings: read-out: Activity

Compound	growth at 0.1 µM [%]
CNC(=O)c1cc(Oc2ccc3nc(NC(=O)Nc4ccc(Cl)c(C(F)(F)F)c4)sc3c2)ccn1	105

System: not listed separately
Test: Antiproliferative activity against human SNB19 cells assessed as growth inhibition after 48 hrs by sulforhodamine B assay
Assay type: functional
Settings: SNB-19, 48 h

Compound	GI50 [µM]	LC50 (50% lethal concentration) [µM]	TGI [µM]
CNC(=O)c1cc(Oc2ccc3nc(NC(=O)Nc4ccc(Cl)c(C(F)(F)F)c4)sc3c2)ccn1	2.77	> 100	10.2

System: NCI-H226
Test: Antiproliferative activity against human NCI-H226 cells assessed as cell growth at 10^-7 M after 48 hrs by sulforhodamine B assay
Assay type: functional
Settings: NCI-H226, 48 h, read-out: Activity

Compound	growth at 0.1 µM [%]
CNC(=O)c1cc(Oc2ccc3nc(NC(=O)Nc4ccc(Cl)c(C(F)(F)F)c4)sc3c2)ccn1	99

System: MCF7
Test: Antiproliferative activity against human MCF7 cells assessed as cell growth at 10^-8 M after 48 hrs by sulforhodamine B assay
Assay type: functional
Settings: MCF7, 48 h, read-out: Activity

Compound	growth at 0.01 µM [%]
CNC(=O)c1cc(Oc2ccc3nc(NC(=O)Nc4ccc(Cl)c(C(F)(F)F)c4)sc3c2)ccn1	92

System: not listed separately
Test: Antiproliferative activity against human SF295 cells assessed as cell growth at 10^-4 M after 48 hrs by sulforhodamine B assay
Assay type: functional
Settings: SF-295, 48 h, read-out: Activity

Compound	growth at 100 µM [%]
CNC(=O)c1cc(Oc2ccc3nc(NC(=O)Nc4ccc(Cl)c(C(F)(F)F)c4)sc3c2)ccn1	-82

System: not listed separately
Test: Antiproliferative activity against human HCT15 cells assessed as cell growth at 10^-8 M after 48 hrs by sulforhodamine B assay
Assay type: functional
Settings: HCT-15, 48 h, read-out: Activity

Compound	growth at 0.01 µM [%]
CNC(=O)c1cc(Oc2ccc3nc(NC(=O)Nc4ccc(Cl)c(C(F)(F)F)c4)sc3c2)ccn1	97

System: not listed separately
Test: Antiproliferative activity against human SF295 cells assessed as growth inhibition after 48 hrs by sulforhodamine B assay
Assay type: functional
Settings: SF-295, 48 h

Compound	GI50 [µM]	TGI [µM]
CNC(=O)c1cc(Oc2ccc3nc(NC(=O)Nc4ccc(Cl)c(C(F)(F)F)c4)sc3c2)ccn1	1.79	3.71

Same assay, conditions: SF-295, 48 h, read-out: LC50 (the source's name)

Compound	CC50 [µM]
CNC(=O)c1cc(Oc2ccc3nc(NC(=O)Nc4ccc(Cl)c(C(F)(F)F)c4)sc3c2)ccn1	7.66

System: not listed separately
Test: Antiproliferative activity against human UACC62 cells assessed as cell growth at 10^-7 M after 48 hrs by sulforhodamine B assay
Assay type: functional
Settings: UACC-62, 48 h, read-out: Activity

Compound	growth at 0.1 µM [%]
CNC(=O)c1cc(Oc2ccc3nc(NC(=O)Nc4ccc(Cl)c(C(F)(F)F)c4)sc3c2)ccn1	91

System: MDA-MB-435
Test: Antiproliferative activity against human MDA-MB-435 cells assessed as cell growth at 10^-8 M after 48 hrs by sulforhodamine B assay
Assay type: functional
Settings: MDA-MB-435, 48 h, read-out: Activity

Compound	growth at 0.01 µM [%]
CNC(=O)c1cc(Oc2ccc3nc(NC(=O)Nc4ccc(Cl)c(C(F)(F)F)c4)sc3c2)ccn1	91

System: K562
Test: Antiproliferative activity against human K562 cells assessed as cell growth at 10^-4 M after 48 hrs by sulforhodamine B assay
Assay type: functional
Settings: K562, 48 h, read-out: Activity

Compound	growth at 100 µM [%]
CNC(=O)c1cc(Oc2ccc3nc(NC(=O)Nc4ccc(Cl)c(C(F)(F)F)c4)sc3c2)ccn1	59

System: M14
Test: Antiproliferative activity against human M14 cells assessed as cell growth at 10^-6 M after 48 hrs by sulforhodamine B assay
Assay type: functional
Settings: M14, 48 h, read-out: Activity

Compound	growth at 1 µM [%]
CNC(=O)c1cc(Oc2ccc3nc(NC(=O)Nc4ccc(Cl)c(C(F)(F)F)c4)sc3c2)ccn1	83

System: not listed separately
Test: Antiproliferative activity against human UACC257 cells assessed as cell growth at 10^-8 M after 48 hrs by sulforhodamine B assay
Assay type: functional
Settings: UACC-257, 48 h, read-out: Activity

Compound	growth at 0.01 µM [%]
CNC(=O)c1cc(Oc2ccc3nc(NC(=O)Nc4ccc(Cl)c(C(F)(F)F)c4)sc3c2)ccn1	102

System: ACHN
Test: Antiproliferative activity against human ACHN cells assessed as cell growth at 10^-6 M after 48 hrs by sulforhodamine B assay
Assay type: functional
Settings: read-out: Activity

Compound	growth at 1 µM [%]
CNC(=O)c1cc(Oc2ccc3nc(NC(=O)Nc4ccc(Cl)c(C(F)(F)F)c4)sc3c2)ccn1	93

System: not listed separately
Test: Antiproliferative activity against human HOP62 cells assessed as cell growth at 10^-6 M after 48 hrs by sulforhodamine B assay
Assay type: functional
Settings: HOP-62, 48 h, read-out: Activity

Compound	growth at 1 µM [%]
CNC(=O)c1cc(Oc2ccc3nc(NC(=O)Nc4ccc(Cl)c(C(F)(F)F)c4)sc3c2)ccn1	87

System: not listed separately
Test: Antiproliferative activity against human COLO205 cells assessed as growth inhibition after 48 hrs by sulforhodamine B assay
Assay type: functional
Settings: COLO 205, 48 h, read-out: LC50 (the source's name)

Compound	CC50 [µM]
CNC(=O)c1cc(Oc2ccc3nc(NC(=O)Nc4ccc(Cl)c(C(F)(F)F)c4)sc3c2)ccn1	> 100
